{"source": "patent US8637092B2", "about": "“Pharmaceutical composition for treating diabetes and its process for preparation” (Tasly Pharmaceutical Group Co., Ltd., priority 2007, dated 2014)", "test_system": "STZ high-blood-glucose rats", "experiment": "Efficacy test: blood glucose in streptozotocin (STZ) induced high-blood-glucose rats", "assay_type": "in vivo", "settings": "STZ model male SD rats, mean ± SD, n = 10", "protocol": "Sixty of male SD rats with SPF grade, weighed 200-220 g. Tested drugs (TL-1, TL-2 and TL-3) were powder of the extract respectively prepared by Examples 3, 8 and 9. SD rats were fasted overnight after one-week adaptation, intraperitoneal and injected a solution of 2% (W/V) STZ prepared with […] citric acid buffer solution (pH 4.4) (65 mg/kg). Three days later, the blood was sampled from tail vein to assay blood glucose. Those animals with blood glucose level equal to or higher than 16.7 mmol/L were considered to be successful model. The modeled rats were randomly divided into model group, Metformin (125 mg/kg) group and different treatment groups (corresponding to 15.5 g crude drugs/kg). After one-week adaptation and the blood glucose detection, rats were administered by gastric infusion, once a day. All of the drugs were diluted with physiological saline to prepare into suspension for administration. Animals were free to access of food and water during the 15-day testing period. At the seventh and fourteenth day after administration, the rats were fasted for two hours after administration. Respectively, blood was sampled from tail vein to assay blood glucose with blood glucose meter (one-touch ultra). At the same time, the body weights of the rats were measured. Results were expressed as mean±SD ( X±SD), and t-test was used to evaluate the significant difference of measurement data between two groups.", "key": {"[1]": {"settings": "gastric infusion once a day, Metformin 125 mg/kg, TL 15.5 g crude drugs/kg, fasted 2 h, tail vein blood"}}}
{"smiles": "CN(C)C(=N)N=C(N)N", "note": "[Metformin]", "values": [{"measurement": "Blood glucose level before administration", "setting": "baseline before gastric infusion", "value": "21.61 ± 2.066", "unit": "mmol/L"}, {"measurement": "Blood glucose level, 14 days after administration", "setting": "[1]", "value": "17.54 ± 1.222", "unit": "mmol/L"}, {"measurement": "blood glucose level, 7 days after administration", "setting": "[1]", "value": "18.64 ± 0.783", "unit": "mmol/L"}]}
